Target: human FPR2 receptor (Homo sapiens (Human), UniProt P25090)
Assay: FLIPR Ca+2 response in HEK-Gα16 cells stably expressing the human FPR2 receptor
Assay type: cell-based
Design: FPR2 (% eff): unit not given here
Details: Table 4; for FPR2 (% eff): value in brackets, given mostly as fraction
Experimental: FLIPR: HEK-Gα16 cells stably expressing the human FPR2 receptor was utilized. Cells were plated into 384-well poly-D-lysine coated plates at a density of 18,000 cells per well one day prior to use. The growth media was DMEM medium supplemented with 10% fetal bovine serum (FBS), 1% antibiotic-antimycotic, 50 μg/ml hygromycin, and 400 μg/ml geneticin. On the day of the experiment, the cells were washed twice with Hank's Balanced Salt Solution supplemented with 20 mM HEPES (HBSS/hepes buffer). The cells were then dye loaded with 2 μM Fluo-4 diluted in the HBSS/Hepes buffer and incubated at 37° C. for 40 minutes. Extracellular dye was removed by washing the cell plates four times prior to placing the plates in the FLIPR (Fluorometric Imaging Plate Reader, Molecular Devices). Ligands were diluted in HBSS/Hepes buffer and prepared in 384-well microplates. Data for Ca^+2 responses were obtained in relative fluorescence units.

Chain of human FPR2 receptor (P25090 whole entry): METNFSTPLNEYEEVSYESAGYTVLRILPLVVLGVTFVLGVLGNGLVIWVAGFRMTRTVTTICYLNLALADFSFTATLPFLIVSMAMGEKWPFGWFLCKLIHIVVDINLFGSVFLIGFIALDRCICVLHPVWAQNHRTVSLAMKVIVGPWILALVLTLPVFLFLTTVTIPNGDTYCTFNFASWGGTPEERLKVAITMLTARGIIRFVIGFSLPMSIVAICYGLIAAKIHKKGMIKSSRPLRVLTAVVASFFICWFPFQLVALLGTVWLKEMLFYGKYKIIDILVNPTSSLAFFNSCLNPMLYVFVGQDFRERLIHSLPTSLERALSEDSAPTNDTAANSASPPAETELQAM

Structure (SMILES) | FPR2 (% eff) | EC50 [nM]
CC(C)C1(C(C)C)NC(=O)N(NC(=O)Nc2ccc(Br)cc2)C1=O [Compound 64, 1-(4-bromophenyl)-3-[2,5-dioxo-4,4-di(propan-2-yl)imidazolidin-1-yl]urea] | 1.0 | –
O=C(Nc1ccc(Br)cc1)NN1C(=O)NC(C2CC2)(C2CC2)C1=O [Compound 65, 1-(4-bromophenyl)-3-(4,4-dicyclopropyl-2,5-dioxoimidazolidin-1-yl)urea] | 1.0 | –
CC(=O)CNC(=O)[C@H](Cc1ccccc1)NC(=O)Nc1ccc(Br)cc1F [Compound 68, (2S)-2-{[(4-bromo-2-fluorophenyl)carbamoyl]amino}-N-(2-oxopropyl)-3-phenylpropanamide] | 0.94 | 12.4
CCC1(CCc2ccccc2)NC(=O)N(NC(=O)Nc2ccc(Br)cc2F)C1=O (stereo not shown) [Compound 69, 1-(4-bromo-2-fluorophenyl)-3-[4-ethyl-2,5-dioxo-4-(2-phenylethyl)imidazolidin-1-yl]urea] | 0.91 | –
CCC[C@H](NC(=O)Nc1ccc(Br)cc1)C(=O)O [Compound 70, (2S)-2-{[(4-bromophenyl)carbamoyl]amino}pentanoic acid] | 1.0 | –
O=C(Nc1ccc(Br)cc1F)N[C@@H](Cc1ccccc1)C(=O)NCCO [Compound 71, (2S)-2-{[(4-bromo-2-fluorophenyl)carbamoyl]amino}-N-(2-hydroxyethyl)-3-phenylpropanamide] | 0.98 | 15.6
CCC[C@H](NC(=O)Nc1ccc(Br)cc1)C(=O)NCC(=O)OC [Compound 72, methyl {[(2S)-2-{[(4-bromophenyl)carbamoyl]amino}pentanoyl]amino}acetate] | 0.86 | –
CCC[C@H](NC(=O)Nc1ccc(Br)cc1)C(=O)NCC(=O)OC(C)C [Compound 73, propan-2-yl {[(2S)-2-{[(4-bromophenyl)carbamoyl]amino}pentanoyl]amino}acetate] | 1.0 | –
CCC[C@H](NC(=O)Nc1ccc(Br)cc1F)C(=O)NCC(=O)O [Compound 74, {[(2S)-2-{[(4-bromo-2-fluorophenyl)carbamoyl]amino}pentanoyl]amino}acetic acid] | 0.91 | –
CC(C)C[C@H](NC(=O)Nc1ccc(Br)cc1)C(=O)NCCO [Compound 75, (2S)-2-{[(4-bromophenyl)carbamoyl]amino}-N-(2-hydroxyethyl)-4-methylpentanamide] | 0.76 | –
CC1(CCc2ccco2)NC(=O)N(NC(=O)Nc2ccc(Br)cc2)C1=O (stereo not shown) [Compound 76, 1-(4-bromophenyl)-3-{4-[2-(furan-2-yl)ethyl]-4-methyl-2,5-dioxoimidazolidin-1-yl}urea] | 0.99 | –
CC(C)C[C@H](NC(=O)Nc1ccc(Br)cc1)C(=O)NCC(N)=O [Compound 77, (2S)-N-(2-amino-2-oxoethyl)-2-{[(4-bromophenyl)carbamoyl]amino}-4-methylpentanamide] | 1.0 | 1.1
CC(=O)CNC(=O)[C@H](CC(C)C)NC(=O)Nc1ccc(Br)cc1 [Compound 78, (2S)-2-{[(4-bromophenyl)carbamoyl]amino}-4-methyl-N-(2-oxopropyl)pentanamide] | 0.82 | –
CCC[C@H](NC(=O)Nc1ccc(Br)cc1)C(=O)NCC(N)=O [Compound 79, (2S)-N-(2-amino-2-oxoethyl)-2-{[(4-bromophenyl)carbamoyl]amino}pentanamide] | 0.97 | –
CC1(CCc2ccccc2F)NC(=O)N(NC(=O)Nc2ccc(Br)cc2)C1=O (stereo not shown) [Compound 80, 1-(4-bromophenyl)-3-{4-[2-(2-fluorophenyl)ethyl]-4-methyl-2,5-dioxoimidazolidin-1-yl}urea] | 99 | 14.3
CCC[C@H](NC(=O)Nc1ccc(Br)cc1F)C(=O)NCC(N)=O [Compound 81, (2S)-N-(2-amino-2-oxoethyl)-2-{[(4-bromo-2-fluorophenyl)carbamoyl]amino} pentanamide] | 0.96 | –
CC1(CCc2ccc(F)cc2)NC(=O)N(NC(=O)Nc2ccc(Br)cc2)C1=O (stereo not shown) [Compound 82, 1-(4-bromophenyl)-3-{4-[2-(4-fluorophenyl)ethyl]-4-methyl-2,5-dioxoimidazolidin-1-yl}urea] | 1.0 | –
CC1(CCc2cccc(F)c2)NC(=O)N(NC(=O)Nc2ccc(Br)cc2)C1=O (stereo not shown) [Compound 83, 1-(4-bromophenyl)-3-{4-[2-(3-fluorophenyl)ethyl]-4-methyl-2,5-dioxoimidazolidin-1-yl}urea] | 1.0 | –

Structure (SMILES) | FPR2 (% eff) | EC50 [nM]
CC(C)C[C@H](NC(=O)Nc1ccc(Br)cc1F)C(=O)NCC(N)=O [Compound 84, (2S)-N-(2-amino-2-oxoethyl)-2-{[(4-bromo-2-fluorophenyl)carbamoyl]amino}-4-methylpentanamide] | 0.95 | –
CC(=O)CNC(=O)[C@H](CC(C)C)NC(=O)Nc1ccc(Br)cc1F [Compound 85, (2S)-2-{[(4-bromo-2-fluorophenyl)carbamoyl]amino}-4-methyl-N-(2-oxopropyl)pentanamide] | 0.99 | –
CC1(CCc2ccc(O)cc2)NC(=O)N(NC(=O)Nc2ccc(Br)cc2)C1=O (stereo not shown) [Compound 86, 1-(4-bromophenyl)-3-{4-[2-(4-hydroxyphenyl)ethyl]-4-methyl-2,5-dioxoimidazolidin-1-yl}urea] | 1.0 | –
CC(C)C[C@H](NC(=O)Nc1ccc(Br)cc1F)C(=O)N[C@@H](C)C(=O)O [Compound 87, (2S)-2-{[(2S)-2-{[(4-bromo-2-fluorophenyl)carbamoyl]amino}-4-methylpentanoyl]amino}propanoic acid] | 0.95 | –
CC1(CCc2cccs2)NC(=O)N(NC(=O)Nc2ccc(Br)cc2)C1=O (stereo not shown) [Compound 88, 1-(4-bromophenyl)-3-{4-methyl-2,5-dioxo-4-[2-(thiophen-2-yl)ethyl]imidazolidin-1-yl}urea] | 0.94 | –
CC1(CCc2ccc(O)cc2)NC(=O)N(NC(=O)Nc2ccc(Br)cc2F)C1=O (stereo not shown) [Compound 89, 1-(4-bromo-2-fluorophenyl)-3-{4-[2-(4-hydroxyphenyl)ethyl]-4-methyl-2,5-dioxoimidazolidin-1-yl}urea] | 0.85 | –
CC(C)C[C@H](NC(=O)Nc1ccc(Br)cc1)C(=O)N[C@H](C(=O)O)C(C)C [Compound 91, (2S)-2-{[(2S)-2-{[(4-bromophenyl)carbamoyl]amino}-4-methylpentanoyl]amino}-3-methylbutanoic acid] | 0.97 | –
CC(C)C[C@H](NC(=O)Nc1ccc(Br)cc1)C(=O)N[C@H](C(N)=O)C(C)C [Compound 92, (2S)-N-[(2S)-1-amino-3-methyl-1-oxobutan-2-yl]-2-{[(4-bromophenyl)carbamoyl]amino}-4-methylpentanamide] | 1.0 | –
CC(C)C[C@H](NC(=O)Nc1ccc(Br)cc1)C(=O)NCC(C)(C)O [Compound 93, (2S)-2-{[(4-bromophenyl)carbamoyl]amino}-N-(2-hydroxy-2-methylpropyl)-4-methylpentanamide] | 0.93 | –
CC(C)C[C@H](NC(=O)Nc1ccc(Br)cc1)C(=O)NC(CO)CO [Compound 94, (2S)-2-{[(4-bromophenyl)carbamoyl]amino}-N-(1,3-dihydroxypropan-2-yl)-4-methylpentanamide] | 0.96 | –
CC(C)C[C@H](NC(=O)Nc1ccc(Br)cc1)C(=O)N[C@H](C)CO [Compound 96, (2S)-2-{[(4-bromophenyl)carbamoyl]amino}-N-[(2R)-1-hydroxypropan-2-yl]-4-methylpentanamide] | 1.0 | –
Cc1ccc(CCC2(C)NC(=O)N(NC(=O)Nc3ccc(Br)cc3)C2=O)o1 (stereo not shown) [Compound 97, 1-(4-bromophenyl)-3-{4-methyl-4-[2-(5-methylfuran-2-yl)ethyl]-2,5-dioxoimidazolidin-1-yl}urea] | 0.95 | –
CC1(CCc2ccc(O)c(F)c2)NC(=O)N(NC(=O)Nc2ccc(Br)cc2F)C1=O (stereo not shown) [Compound 98, 1-(4-bromo-2-fluorophenyl)-3-{4-[2-(3-fluoro-4-hydroxyphenyl)ethyl]-4-methyl-2,5-dioxoimidazolidin-1-yl}urea] | 0.91 | –
CC1(CCc2ccc(O)c(F)c2)NC(=O)N(NC(=O)Nc2ccc(Br)cc2)C1=O (stereo not shown) [Compound 99, 1-(4-bromophenyl)-3-{4-[2-(3-fluoro-4-hydroxyphenyl)ethyl]-4-methyl-2,5-dioxoimidazolidin-1-yl}urea] | 1.0 | –
CCC[C@H](NC(=O)[C@H](CC(C)C)NC(=O)Nc1ccc(Br)cc1)C(=O)OC(C)(C)C [Compound 100, tert-butyl (2S)-2-{[(2S)-2-{[(4-bromophenyl)carbamoyl]amino}-4-methylpentanoyl]amino} pentanoate] | 1.0 | –
CCC[C@H](NC(=O)[C@H](CC(C)C)NC(=O)Nc1ccc(Br)cc1)C(=O)O [Compound 101, (2S)-2-{[(2S)-2-{[(4-bromophenyl)carbamoyl]amino}-4-methylpentanoyl]amino} pentanoic acid] | 0.95 | –
CCC[C@H](NC(=O)[C@H](CC(C)C)NC(=O)Nc1ccc(Br)cc1)C(N)=O [Compound 102, (2S)-N-[(2S)-1-amino-1-oxopentan-2-yl]-2-{[(4-bromophenyl)carbamoyl]amino}-4-methylpentanamide] | 0.99 | –
CC(C)C[C@H](NC(=O)Nc1ccc(Br)cc1)C(=O)N[C@H](C(=O)O)c1ccccc1 [Compound 103, (2S)-{[(2S)-2-{[(4-bromophenyl)carbamoyl]amino}-4-methylpentanoyl]amino} (phenyl)ethanoic acid] | 1.0 | –
